Source: patent publication US20250361240A1, “PYRANOPYRIDINE COMPOUND, PROCESS FOR PREPARING THE SAME, PHARMACEUTICAL COMPOSITION AND USE THEREOF” (Zhejiang Yangli Pharmaceutical Technology Co., Ltd., priority 2024, published 2025)

Experiments:
CYP2C9 = CYP2C9 (Homo sapiens (Human), UniProt P11712); assay: In vitro inhibitory activity against common CYP450 enzymes: CYP2C9; format: in vitro ADME; conditions: microsomes, substrate Diclofenac
Experimental: (§1) A working solution of the test compound was prepared in a solvent of dimethyl sulfoxide (DMSO) (starting at a final concentration of 50 μM, 3-fold dilution of 7 concentration points). The corresponding microsomes (CORNING, Cat No.452117) and the corresponding substrate solution were prepared (components were shown in Table 2). The working solution of the test compound and the corresponding microsomes were mixed with the corresponding substrate solution and the HLM working solution. The mixture was preheated in a 37.0° C. water bath for 10 min. NADPH cofactor (BONTAC, Cat No.BT04) was added. The resultant mixture was incubated for 10 min in a 37.0° C. water bath. The reaction was terminated by adding cold stop solution. [table] [table] The sample was centrifuged at 4000 rpm for 20 min to precipitate protein and the supernatant was transferred to HPLC water and shaken for 10 min.

CYP3A = CYP3A (Homo sapiens, UniProt P08684); assay: In vitro inhibitory activity against common CYP450 enzymes: CYP3A (midazolam); format: in vitro ADME; conditions: human, human liver microsomes, probe Midazolam, substrate Midazolam
Experimental: as §1

aldosterone synthase = aldosterone synthase (Homo sapiens (Human), UniProt P19099); conditions: phase I clinical study, cited from earlier work
CYP2C19 = CYP2C19 (Homo sapiens (Human), UniProt P33261); assay: In vitro inhibitory activity against common CYP450 enzymes: CYP2C19; format: in vitro ADME; conditions: microsomes, substrate (S)-(+)-Mephenytoin
Experimental: as §1

human CYP11B1 = human CYP11B1 (Homo sapiens (Human), UniProt P15538); assay: Inhibitory activity against hCYP11B1 in G-402 CYP11B1 high expression stable transformants (cortisol HTRF); format: cell-based; conditions: G-402 CYP11B1 cells, 0.2 μM 11-deoxycortisol, 16 hours; read-out: hCYP11B1 Abs IC50
Experimental: (§2) 1. Experimental System: G-402 CYP11B2 or CYP11B1 High Expression Stable Transformants
(§3) The above-mentioned high-expression stable transformants were constructed based on human […] cell line G-402. The artificial lentiviruses were introduced into human CYP11B2 (NM_000498.3) and CYP11B1 (NM_000497.4), respectively.
(§4) Maintenance medium: McCoy's 5A (modified, #16600082, GIBCO)+10% FBS (GIBCO)+1 μg/mL puromycin (A1113803, GIBCO).
(§5) Resuscitation and seeding medium: McCoy's 5A (modified, #16600082, GIBCO)+10% FBS (GIBCO).
(§6) Reaction medium: DMEM/F12 (#11320033, GIBCO)+2.5% activated charcoal filtered FBS (S11695, R & D).
(§7) Seeding: Cells were cultured to a suitable state after resuscitation with maintenance medium, and 96-well flat plates were seeded with seeding medium according to 1×10^4/100 μL/well (unified cell volume).
(§8) Changing solution: The supernatant was aspirated and discarded after seeding overnight (>12 hours) and adherence. 100-150 μL/well serum-free medium was added, and after being aspirated. After aspiration, 50 μL/well reaction medium was added for later use.
(§9) Formulation: Compound was diluted with reaction medium containing 0.4 μM substrate (final experimental concentration is 0.2 μM):
CYP11B1 substrate: 11-deoxycortisol (11-deoxycortisol, S4775, selleckchem). The final reaction concentration was 0.2 μM.
(§10) Loading: The above compound dilutions were added to the cell plates at 50 μL/well. The background and control wells were set.
(§11) Treating and sampling: The cell plates were incubated in a cell incubator for 16 hours after loading, and then each cell plate was centrifuged at 450 g for 2 min. 75 μL supernatant was transferred to a collection plate and frozen at −80° C. for future use (or direct detection).
(§12) Detection: Homogeneous time-resolved fluorescence kit (Cisbio HTRF kit, Cat.64ALDPEG, Cat.62CRTPEG) was used to determine the concentration of aldosterone or cortisol in the supernatant.
(§13) Analysis: The absolute IC50 (Abs IC50) for each compound was calculated using a four parameter fit.

cortisol levels = assay: Pharmacodynamic test in cynomolgus monkeys with ACTH stimulation: cortisol in plasma; format: in vivo, cynomolgus monkeys (Macaca fascicularis)
Description: Adult cynomolgus monkeys (Macaca fascicularis) with suitable body weight and age were selected. 1 male and 1 female cynomolgus monkeys were used for experiment. The adaptation period was 1 week. On the day of the experiment, monkeys were individually housed in stainless steel mesh cages for testing.
Oral treatment and ACTH working solution (working solution diluted to the desired concentration in PBS sterile solution by ultrapure water filtration through a 0.22 μm filter using Tetracosactrin (HY-P0060, MCE)) were administered as follows: • T=0, 2 monkeys in each group were orally administered 0.5 mg/kg (compound was suspended in 5% aqueous sodium hydroxymethylcellulose solution as vehicle) in a fixed volume of 2 mL/kg; • T=+1 hour (i.e., 1 hour after administration), 14.5 μg/kg of the aforementioned ACTH working solution was injected intramuscularly.
Sampling test: Blood samples (collected in EDTA anticoagulant tubes) were collected before oral administration (Pre-dose) and 0.5 h, 1 h, 2 h, 4 h, 6 h and 12 h after administration for cortisol concentration measurement in plasma. The blood was centrifuged at 10000 rpm for 15 minutes at 4° C., followed by separation of the plasma and uniform storage at −80° C. for further analysis using an Roche biochemical analyzer to detect aldosterone and cortisol in plasma, and a portion of the plasma (0.5 h, 1 h, 2 h, 4 h, 6 h, and 12 h after administration, and an additional blood collection after 24 h) was taken simultaneously to determine the pharmacokinetic parameters by LC/MS.
The above experiment was repeated except that: T=0, two monkeys in each group were orally administered at a dose of 0.05 mg/kg (compound was suspended in 5% aqueous sodium hydroxymethylcellulose as vehicle) in a fixed volume of 2 mL/kg.

human CYP11B2 = human CYP11B2 (Homo sapiens (Human), UniProt P19099); assay: Inhibitory activity against hCYP11B2 in G-402 CYP11B2 high expression stable transformants (aldosterone HTRF); format: cell-based
Experimental: as §2, §3, §4, §5, §6, §7, §8, §9
CYP11B2 substrate: 11-deoxycorticosterone (11-deoxycorticosterone, S4243, selleckchem). The final reaction concentration was 0.2 μM
as §10, §11, §12, §13

Sequence of aldosterone synthase (P19099 25-503): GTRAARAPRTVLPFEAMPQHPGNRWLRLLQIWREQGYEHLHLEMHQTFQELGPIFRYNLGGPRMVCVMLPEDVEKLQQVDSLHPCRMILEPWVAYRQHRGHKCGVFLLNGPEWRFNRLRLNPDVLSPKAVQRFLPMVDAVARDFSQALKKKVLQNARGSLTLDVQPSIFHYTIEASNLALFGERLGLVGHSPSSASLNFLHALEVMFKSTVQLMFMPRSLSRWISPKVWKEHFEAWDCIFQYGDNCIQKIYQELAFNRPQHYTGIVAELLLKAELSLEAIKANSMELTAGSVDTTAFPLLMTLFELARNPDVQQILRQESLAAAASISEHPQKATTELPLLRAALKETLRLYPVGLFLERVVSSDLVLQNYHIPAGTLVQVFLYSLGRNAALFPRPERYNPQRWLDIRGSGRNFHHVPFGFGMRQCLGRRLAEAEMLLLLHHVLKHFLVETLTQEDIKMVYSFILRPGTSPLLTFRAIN
Sequence of human CYP11B2 (P19099 25-503): as above
Sequence of CYP2C9 (P11712 whole entry): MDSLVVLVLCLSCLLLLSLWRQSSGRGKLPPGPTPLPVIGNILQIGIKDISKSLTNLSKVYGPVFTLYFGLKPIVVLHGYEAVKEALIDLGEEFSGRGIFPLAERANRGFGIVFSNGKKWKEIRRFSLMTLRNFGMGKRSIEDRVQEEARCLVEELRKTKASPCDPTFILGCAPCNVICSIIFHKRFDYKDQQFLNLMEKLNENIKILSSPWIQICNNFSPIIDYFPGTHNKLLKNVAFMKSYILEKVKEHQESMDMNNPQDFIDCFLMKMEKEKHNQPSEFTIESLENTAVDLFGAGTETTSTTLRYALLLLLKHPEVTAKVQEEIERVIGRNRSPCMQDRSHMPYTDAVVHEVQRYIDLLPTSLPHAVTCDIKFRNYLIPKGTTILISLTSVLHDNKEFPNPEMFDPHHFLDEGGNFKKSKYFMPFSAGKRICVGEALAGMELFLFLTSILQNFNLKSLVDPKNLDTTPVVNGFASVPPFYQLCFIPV
Sequence of human CYP11B1 (P15538 25-503): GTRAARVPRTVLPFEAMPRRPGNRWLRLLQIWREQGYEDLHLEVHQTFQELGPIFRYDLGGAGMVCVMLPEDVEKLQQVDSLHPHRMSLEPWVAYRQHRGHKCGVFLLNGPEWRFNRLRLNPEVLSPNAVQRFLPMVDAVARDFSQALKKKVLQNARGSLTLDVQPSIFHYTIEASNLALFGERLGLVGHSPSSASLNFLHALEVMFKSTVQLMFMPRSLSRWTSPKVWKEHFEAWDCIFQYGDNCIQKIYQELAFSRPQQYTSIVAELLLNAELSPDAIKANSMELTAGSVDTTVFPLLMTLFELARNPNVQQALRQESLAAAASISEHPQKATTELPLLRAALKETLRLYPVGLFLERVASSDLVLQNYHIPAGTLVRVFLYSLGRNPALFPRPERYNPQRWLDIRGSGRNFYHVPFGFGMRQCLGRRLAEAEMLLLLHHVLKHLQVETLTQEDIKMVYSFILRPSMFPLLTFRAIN
Sequence of CYP3A (P08684 2-503 limits assumed): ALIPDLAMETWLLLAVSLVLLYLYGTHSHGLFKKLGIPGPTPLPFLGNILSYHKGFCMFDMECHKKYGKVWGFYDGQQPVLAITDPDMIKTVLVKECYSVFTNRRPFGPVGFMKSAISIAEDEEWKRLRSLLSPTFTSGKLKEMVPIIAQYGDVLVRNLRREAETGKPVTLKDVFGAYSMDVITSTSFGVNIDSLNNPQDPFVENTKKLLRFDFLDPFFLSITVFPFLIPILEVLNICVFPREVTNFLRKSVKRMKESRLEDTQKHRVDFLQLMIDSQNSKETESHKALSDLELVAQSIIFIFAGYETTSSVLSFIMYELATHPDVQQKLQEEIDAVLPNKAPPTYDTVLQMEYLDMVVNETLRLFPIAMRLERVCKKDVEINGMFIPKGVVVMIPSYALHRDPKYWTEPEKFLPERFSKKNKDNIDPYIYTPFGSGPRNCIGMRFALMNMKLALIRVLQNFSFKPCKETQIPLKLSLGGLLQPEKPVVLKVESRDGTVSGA
Sequence of CYP2C19 (P33261 whole entry): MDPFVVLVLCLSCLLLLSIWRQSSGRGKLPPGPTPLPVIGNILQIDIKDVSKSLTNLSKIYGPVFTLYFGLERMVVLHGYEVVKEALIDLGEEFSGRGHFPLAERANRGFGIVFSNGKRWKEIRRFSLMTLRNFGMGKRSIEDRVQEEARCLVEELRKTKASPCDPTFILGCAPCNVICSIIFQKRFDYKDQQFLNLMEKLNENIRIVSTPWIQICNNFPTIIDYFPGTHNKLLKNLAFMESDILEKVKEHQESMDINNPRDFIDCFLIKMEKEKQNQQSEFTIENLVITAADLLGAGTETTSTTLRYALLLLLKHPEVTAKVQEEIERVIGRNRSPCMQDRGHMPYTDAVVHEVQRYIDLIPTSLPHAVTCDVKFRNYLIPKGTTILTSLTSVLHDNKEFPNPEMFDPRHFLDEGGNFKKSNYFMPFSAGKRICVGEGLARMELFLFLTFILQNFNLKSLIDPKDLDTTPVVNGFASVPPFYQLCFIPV

CCC(=O)N[C@@H]1CCCc2c(-c3ccc4c(c3)CCC(=O)N4C)cncc21 [Baxdrostat, reference compound]
IC50 (CYP2C9): 35.2 µM | IC50 at 10 min (CYP3A): > 50 µM | reduction of aldosterone level in plasma (aldosterone synthase; dose-dependent): more than 70% | inhibition of aldosterone synthase relative to inhibition of cortisol synthesis (aldosterone synthase): 100 times | IC50 (CYP2C19): 6.52 µM | IC50 (human CYP11B1): 3.37 µM | Cortisol Concentration in Plasma (cortisol levels; 0.05 mg/kg oral, 0.5 h): 1136.1 pg/mL | Cortisol Concentration in Plasma (cortisol levels; 0.05 mg/kg oral, 1 h (ACTH at +1 hour)): 1293.5 pg/mL | Cortisol Concentration in Plasma (cortisol levels; 0.05 mg/kg oral, 2 h): 1527.0 pg/mL | Cortisol Concentration in Plasma (cortisol levels; 0.05 mg/kg oral, 4 h): 949.2 pg/mL | Cortisol Concentration in Plasma (cortisol levels; 0.05 mg/kg oral, 6 h): 499.4 pg/mL | Cortisol Concentration in Plasma (cortisol levels; 0.05 mg/kg oral, 12 h): 392.6 pg/mL | Cortisol Concentration in Plasma (cortisol levels; 0.05 mg/kg oral, Pre-dose): 784.2 pg/mL | Cortisol Concentration in Plasma (cortisol levels; 0.5 mg/kg oral, 0.5 h): 1004.1 pg/mL | Cortisol Concentration in Plasma (cortisol levels; 0.5 mg/kg oral, 1 h (ACTH at +1 hour)): 964.8 pg/mL | Cortisol Concentration in Plasma (cortisol levels; 0.5 mg/kg oral, 2 h): 1288.5 pg/mL | Cortisol Concentration in Plasma (cortisol levels; 0.5 mg/kg oral, 4 h): 556.6 pg/mL | Cortisol Concentration in Plasma (cortisol levels; 0.5 mg/kg oral, 6 h): 337.0 pg/mL | Cortisol Concentration in Plasma (cortisol levels; 0.5 mg/kg oral, 12 h): 344.6 pg/mL | Cortisol Concentration in Plasma (cortisol levels; 0.5 mg/kg oral, Pre-dose): 596.4 pg/mL | IC50 (human CYP11B2; G-402 CYP11B2 cells, 0.2 μM 11-deoxycorticosterone, 16 hours, read-out: hCYP11B2 (AS) Abs IC50): 28.1 nM | hCYP11B ½ Selectivity Fold (human CYP11B2; hCYP11B1 IC50 relative to hCYP11B2 IC50): 119.99 Fold
